In patent publication US6013651A, “Meta-azacyclic amino benzoic acid compounds and derivatives thereof” (G. D. Searle & Co., priority 1998, dated 2000):
Structures can show the parent of a compound that is named as a salt. Where two headings read alike, the source gives them in different places.

Legend:
[1] = biological target: T1, human fibrinogen receptor (αIIb β3) (Homo sapiens, UniProt P05106+P08514); assay: Purified IIb/IIIa receptor assay, solid phase receptor assay (inhibition of biotinylated vitronectin binding); conditions: 1 nM biotinylated human vitronectin, pH 7.4, 2 h competition
T1 construct: purified from outdated platelets; from tissue; host or cells: outdated human platelets
T1 sequence (P08514 32-887 limits assumed): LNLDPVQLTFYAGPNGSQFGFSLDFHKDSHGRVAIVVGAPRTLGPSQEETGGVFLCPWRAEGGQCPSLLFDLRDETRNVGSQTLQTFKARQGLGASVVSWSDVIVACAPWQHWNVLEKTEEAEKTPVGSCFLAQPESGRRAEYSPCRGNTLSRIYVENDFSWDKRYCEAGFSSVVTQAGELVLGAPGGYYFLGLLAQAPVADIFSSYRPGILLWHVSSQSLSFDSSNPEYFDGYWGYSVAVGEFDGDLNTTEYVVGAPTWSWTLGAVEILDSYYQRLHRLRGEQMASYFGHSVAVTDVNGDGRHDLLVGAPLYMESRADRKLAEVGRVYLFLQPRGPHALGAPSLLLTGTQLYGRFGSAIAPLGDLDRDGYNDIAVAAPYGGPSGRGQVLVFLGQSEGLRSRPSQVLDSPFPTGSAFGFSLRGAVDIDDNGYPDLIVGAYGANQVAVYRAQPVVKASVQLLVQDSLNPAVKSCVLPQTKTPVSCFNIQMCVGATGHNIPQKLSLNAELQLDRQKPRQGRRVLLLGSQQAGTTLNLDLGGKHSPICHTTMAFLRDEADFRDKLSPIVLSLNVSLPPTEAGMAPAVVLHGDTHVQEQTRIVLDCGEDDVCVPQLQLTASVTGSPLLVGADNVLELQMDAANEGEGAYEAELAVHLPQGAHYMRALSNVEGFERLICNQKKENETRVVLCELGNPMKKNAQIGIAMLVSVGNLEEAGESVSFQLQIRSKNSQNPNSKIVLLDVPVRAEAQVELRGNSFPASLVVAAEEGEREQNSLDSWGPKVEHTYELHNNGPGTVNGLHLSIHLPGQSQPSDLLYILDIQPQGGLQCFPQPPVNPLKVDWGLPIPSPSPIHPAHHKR
T1 sequence (P08514 891-1039 limits assumed): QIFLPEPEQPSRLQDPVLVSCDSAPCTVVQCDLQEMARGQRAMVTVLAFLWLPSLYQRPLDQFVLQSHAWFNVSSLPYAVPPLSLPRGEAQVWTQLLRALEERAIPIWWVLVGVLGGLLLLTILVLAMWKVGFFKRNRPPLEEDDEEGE
T1 sequence (P05106 27-788): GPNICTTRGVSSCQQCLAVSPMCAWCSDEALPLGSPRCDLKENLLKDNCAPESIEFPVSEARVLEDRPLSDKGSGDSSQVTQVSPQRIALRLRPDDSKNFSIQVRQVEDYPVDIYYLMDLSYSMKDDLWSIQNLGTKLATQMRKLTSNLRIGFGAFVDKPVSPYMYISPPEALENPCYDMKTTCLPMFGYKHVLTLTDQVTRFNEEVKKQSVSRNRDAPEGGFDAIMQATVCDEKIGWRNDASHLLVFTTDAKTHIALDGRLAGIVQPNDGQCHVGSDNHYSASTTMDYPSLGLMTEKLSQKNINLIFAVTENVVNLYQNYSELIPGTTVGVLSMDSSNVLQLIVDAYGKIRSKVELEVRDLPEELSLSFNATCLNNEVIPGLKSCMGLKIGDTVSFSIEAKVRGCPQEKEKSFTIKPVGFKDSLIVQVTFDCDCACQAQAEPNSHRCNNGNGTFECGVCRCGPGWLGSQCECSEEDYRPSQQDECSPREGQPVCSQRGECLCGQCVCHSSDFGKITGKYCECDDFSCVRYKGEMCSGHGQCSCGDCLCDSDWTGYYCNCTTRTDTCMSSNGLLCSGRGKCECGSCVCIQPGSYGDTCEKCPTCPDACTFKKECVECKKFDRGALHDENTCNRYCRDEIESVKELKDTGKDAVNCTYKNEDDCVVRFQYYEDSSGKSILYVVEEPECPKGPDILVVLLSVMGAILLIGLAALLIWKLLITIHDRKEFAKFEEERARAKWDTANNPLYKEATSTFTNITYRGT
Excerpt: Human fibrinogen receptor (αIIb β3) was purified from outdated platelets. (Pytela, R., Pierschbacher, M. D., Argraves, S., Suzuki, S., and Rouslahti, E. "Arginine-Glycine-Aspartic acid adhesion receptors", Methods in Enzymology 144(1987):475-489.) Human vitronectin was purified from fresh frozen plasma as described in Yatohgo, T., Izumi, M., Kashiwagi, H., and Hayashi, M., "Novel purification of vitronectin from human plasma by heparin affinity chromatography," Cell Structure and Function 13(1988):281-292. Biotinylated human vitronectin was prepared by coupling NHS-biotin from Pierce Chemical Company (Rockford, Il.) to purified vitronectin as previously described. (Charo, I. F., Nannizzi, L., Phillips, D. R., Hsu, M. A., Scaround bottomorough, R. M., "Inhibition of fibrinogen binding to GP IIIb/IIIa by a GP IIIa peptide", J. Biol. Chem. 266(3)(1991): 1415-1421.) Assay buffer, OPD substrate tablets, and RIA grade BSA were obtained from Sigma (St. Louis, Mo.). Anti-biotin antibody was obtained from Calbiochem (La Jolla, Calif.). Linbro microtiter plates were obtained from Flow Labs (McLean, Va.). ADP reagent was obtained from Sigma (St. Louis, Mo.).
This assay is essentially the same reported in Niiya, K., Hodson, E., Bader, R., Byers-Ward, V. Koziol, J. A., Plow, E. F. and Ruggeri, Z. M., "Increased surface expression of the membrane glycoprotein IIb/IIIa complex induced by platelet activation: Relationships to the binding of fibrinogen and platelet aggregation", Blood 70(1987):475-483. The purified human fibrinogen receptor (αIIb β3) was diluted from stock solutions to 1.0 μg/mL in Tris-buffered saline containing 1.0 mM Ca^++, Mg^++, and Mn^++, pH 7.4 (TBS^+++). The diluted receptor was immediately transferred to Linbro microtiter plates at 100 μL/well (100 ng receptor/well). The plates were sealed and incubated overnight at 4° C. to allow the receptor to bind to the wells. All remaining steps were at room temperature. The assay plates were emptied and 200 μL of 1% RIA grade BSA in TBS^+++ (TBS^+++ /BSA) were added to block exposed plastic surfaces. Following a 2 hour incubation, the assay plates were washed with TBS^+++ using a 96 well plate washer. Logarithmic serial dilution of the test compound and controls were made starting at a stock concentration of 2 mM and using 2 nM biotinylated vitronectin in TBS^+++ /BSA as the diluent. This premixing of labeled ligand with test (or control) ligand, and subsequent transfer of 50 μL aliquots to the assay plate was carried out with a CETUS Propette robot; the final concentration of the labeled ligand was 1 nM and the highest concentration of test compound was 1.0×10^-4 M. The competition occurred for two hours after which all wells were washed with a plate washer as before. Affinity purified horseradish peroxidase labeled goat anti-biotin antibody was diluted 1:3000 in TBS^+++ /BSA and 125 μL were added to each well. After 30 minutes, the plates were washed and incubated with […]/H2 O2 substrate in 100 mM/L citrate buffer, pH 5.0. The plate was read with a microtiter plate reader at a wavelength of 450 nm and when the maximum-binding control wells reached an absoround bottomance of about 1.0, the final A450 were recorded for analysis. The data were analyzed using a macro written for use with the EXCEL™ spreadsheet program. The mean, standard deviation, and % CV were determined for duplicate concentrations. The mean A450 values were normalized to the mean of four maximum-binding controls (no competitor added)(B-MAX). The normalized values were subjected to a four parameter curve fit algorithm, [Robard et al., Int.

[2] = biological target: T2, human vitronectin receptor (αv β3) (Homo sapiens, UniProt P05106+P06756); assay: Vitronectin adhesion assay, solid phase receptor assay (inhibition of biotinylated vitronectin binding to purified αvβ3)
T2 construct: purified from human placenta; from tissue; host or cells: human placenta
T2 sequence (P06756 31-889 limits assumed): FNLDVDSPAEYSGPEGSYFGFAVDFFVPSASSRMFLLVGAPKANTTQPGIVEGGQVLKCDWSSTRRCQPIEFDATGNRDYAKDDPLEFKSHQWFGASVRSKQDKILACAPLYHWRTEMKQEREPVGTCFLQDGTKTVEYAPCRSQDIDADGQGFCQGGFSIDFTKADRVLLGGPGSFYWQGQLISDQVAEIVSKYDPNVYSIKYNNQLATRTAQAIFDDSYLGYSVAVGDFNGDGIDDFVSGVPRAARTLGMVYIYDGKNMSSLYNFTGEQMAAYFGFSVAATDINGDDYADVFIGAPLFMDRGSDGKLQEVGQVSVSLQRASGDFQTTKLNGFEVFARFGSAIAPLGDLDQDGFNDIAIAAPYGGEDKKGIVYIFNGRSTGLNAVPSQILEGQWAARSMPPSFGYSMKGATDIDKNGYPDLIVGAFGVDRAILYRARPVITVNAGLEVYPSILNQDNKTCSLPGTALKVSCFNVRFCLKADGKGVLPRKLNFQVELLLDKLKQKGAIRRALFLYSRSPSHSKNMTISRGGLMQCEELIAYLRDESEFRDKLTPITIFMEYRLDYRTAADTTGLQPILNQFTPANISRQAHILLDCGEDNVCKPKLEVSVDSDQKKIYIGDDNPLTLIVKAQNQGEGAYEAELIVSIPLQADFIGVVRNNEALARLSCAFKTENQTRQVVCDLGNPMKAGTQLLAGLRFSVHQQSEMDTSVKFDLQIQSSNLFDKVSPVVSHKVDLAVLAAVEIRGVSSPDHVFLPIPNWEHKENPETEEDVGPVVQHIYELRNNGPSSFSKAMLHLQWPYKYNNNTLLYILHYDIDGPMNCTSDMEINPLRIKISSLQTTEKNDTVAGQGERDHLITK
T2 sequence (P06756 891-1048 limits assumed): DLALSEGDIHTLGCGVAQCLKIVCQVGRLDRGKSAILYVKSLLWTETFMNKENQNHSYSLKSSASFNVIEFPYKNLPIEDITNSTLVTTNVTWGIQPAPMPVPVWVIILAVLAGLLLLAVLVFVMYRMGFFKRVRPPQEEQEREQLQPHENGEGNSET
T2 sequence (P05106 27-788): as the sequence (P05106 27-788) above
Protocol: Human vitronectin receptor (αv β3) was purified from human placenta as previously described [Pytela et al., Methods in Enzymology, 144:475-489 (1987)]. Human vitronectin was purified from fresh frozen plasma as previously described [Yatohgo et al., Cell Structure and Function, 13:281-292 (1988)]. Biotinylated human vitronectin was prepared by coupling NHS-biotin from Pierce Chemical Company (Rockford, Ill.) to purified vitronectin as previously described [Charo et al., J. Biol. Chem., 266(3):1415-1421 (1991)]. Assay buffer, OPD substrate tablets, and RIA grade BSA were obtained from Sigma (St. Louis, Mo.). Anti-biotin antibody was obtained from Calbiochem (La Jolla, Calif.). Linbro microtiter plates were obtained from Flow Labs (McLean, Va.). ADP reagent was obtained from Sigma (St. Louis, Mo.).
This assay was essentially the same as previously reported [Niiya et al., Blood, 70:475-483 (1987)]. The purified human vitronectin receptor (αv β3) was diluted from stock solutions to […] in tris-buffered saline containing 1.0 mM Ca^++, Mg^++, and Mn^++, pH 7.4 (TBS^+++). The diluted receptor was immediately transferred to Linbro microtiter plates at 100 µL/well (100 ng receptor/well). The plates were sealed and incubated overnight at 4° C. to allow the receptor to bind to the wells. All remaining steps were at room temperature. The assay plates were emptied and 200 µL of 1% RIA grade BSA in TBS^+++ (TBS^+++ /BSA) were added to block exposed plastic surfaces. Following a 2 hour incubation, the assay plates were washed with TBS^+++ using a 96 well plate washer. Logarithmic serial dilution of the test compound and controls were made starting at a stock concentration of 2 mM and using 2 nM biotinylated vitronectin in TBS^+++ /BSA as the diluent. This premixing of labeled ligand with test (or control) ligand, and subsequent transfer of 50 µL aliquots to the assay plate was carried out with a CETUS Propette robot; the final concentration of the labeled ligand was 1 nM and the highest concentration of test compound was 1.0×10^-4 M. The competition occurred for two hours after which all wells were washed with a plate washer as before. Affinity purified horseradish peroxidase labeled goat anti-biotin antibody was diluted 1:3000 in TBS^+++ /BSA and 125 µL were added to each well. After 30 minutes, the plates were washed and incubated with OPD/H2 O substrate in 100 mM/L Citrate buffer, pH 5.0. The plate was read with a microtiter plate reader at a wavelength of 450 nm and when the maximum-binding control wells reached an absoround bottomance of about 1.0, the final A450 were recorded for analysis. The data were analyzed using a macro written for use with the EXCEL spreadsheet program. The mean, standard deviation, and % CV were determined for duplicate concentrations. The mean A450 values were normalized to the mean of four maximum-binding controls (no competitor added)(B-MAX). The normalized values were subjected to a four parameter curve fit algorithm [Rodbard et al., Int.

[3] = 1 nM biotinylated human vitronectin, purified receptor, pH 7.4, 2 h competition, read-out: αv β3 IC50

O=C(O)CC(NC(=O)CNC(=O)c1cc(O)cc(NC2=NCC(O)CN2)c1)c1cc(Br)cc(Cl)c1O (stereo not shown) [Example 4]
IC50 [1]: 575 nM | IC50 [2, 3]: 2.02 nM

O=C(O)CC(NC(=O)CNC(=O)c1cc(O)cc(NC2=NCC(O)CN2)c1)c1cc(Cl)cc(I)c1O (stereo not shown) [Example 5]
IC50 [1]: 744 nM | IC50 [2, 3]: 2.13 nM

O=C(O)CC(NC(=O)CNC(=O)c1cc(O)cc(NC2=NCC(O)CN2)c1)c1cc(Br)cc(Br)c1O (stereo not shown) [Example 6]
IC50 [1]: 919 nM | IC50 [2, 3]: 6.46 nM

O=C(O)C[C@H](NC(=O)CNC(=O)c1cc(O)cc(NC2=NCC(O)CN2)c1)c1cc(Br)cc(Br)c1O (stereo partly shown) [Example 10]
IC50 [1]: 641 nM | IC50 [2, 3]: 2.26 nM

O=C(O)CC(NC(=O)CNC(=O)c1cc(O)cc(NC2=NCC(O)CN2)c1)c1cc(Cl)cc(Br)c1O (racemic) [Example 1, (±) 3-bromo-5-chloro-2-hydroxy-β-[[2-[[[3-hydroxy-5-[(1,4,5,6-tetrahydro-5-hydroxypyrimidin-2-yl)amino]phenyl]carbonyl]amino]acetyl]amino]benzenepropanoic acid, trifluroacetate salt]
IC50 [1]: 310 nM | IC50 [2, 3]: 0.88 nM

O=C(O)C[C@H](NC(=O)CNC(=O)c1cc(O)cc(NC2=NCC(O)CN2)c1)c1cc(Cl)cc(Br)c1O (stereo partly shown) [9 · HCl]
IC50 [1]: 226 nM | IC50 [2, 3]: 0.82 nM

O=C(O)CC(NC(=O)CNC(=O)c1cc(O)cc(NC2=NCC(O)CN2)c1)c1cc(Cl)cc(Cl)c1O (stereo not shown) [Example 2]
IC50 [1]: 430 nM | IC50 [2, 3]: 1.04 nM

O=C(O)C[C@H](NC(=O)CNC(=O)c1cc(O)cc(NC2=NCC(O)CN2)c1)c1cc(Cl)cc(Br)c1O (stereo partly drawn) [Example 9, (S) 3-bromo-5-chloro-2-hydroxy-β-[[2-[[[3-hydroxy-5-[(1,4,5,6-tetrahydro-5-hydroxypyrimidin-2-yl)amino]phenyl]carbonyl]amino]acetyl]amino]-benzenepropanoic acid, trifluoroacetate salt]
IC50 [1]: 388 nM | IC50 [2, 3]: 0.37 nM

O=C(O)C[C@H](NC(=O)CNC(=O)c1cc(O)cc(N=C2NCC(O)CN2)c1)c1cc(Br)cc(Cl)c1O (stereo partly shown) [Example 7]
IC50 [1]: 262 nM | IC50 [2, 3]: 1.01 nM

O=C(O)C[C@H](NC(=O)CNC(=O)c1cc(O)cc(N=C2NCC(O)CN2)c1)c1cc(Cl)cc(Cl)c1O (stereo partly drawn) [Example 8, (S) 3,5-dichloro-2-hydroxy-β-[[2-[[[3-hydroxy-5-[(1,4,5,6-tetrahydro-5-hydroxypyrimidin-2-yl)amino]phenyl]carbonyl]amino]acetyl]amino]-benzenepropanoic acid, monohydrochloride monohydrate]
IC50 [1]: 131 nM | IC50 [2, 3]: 0.4 nM

O=C(O)C[C@H](NC(=O)CNC(=O)c1cc(O)cc(NC2=NCC(O)CN2)c1)c1cc(Br)cc(I)c1O (stereo partly shown) [Example 12]
IC50 [1]: 1060 nM | IC50 [2, 3]: 9.59 nM

O=C(O)CC(NC(=O)CNC(=O)c1cc(O)cc(NC2=NCC(O)CN2)c1)c1cc(Br)cc(I)c1O (stereo not shown) [Example 3]
IC50 [1]: 2440 nM | IC50 [2, 3]: 23.7 nM

N=C(N)NCCCCC(=O)NCC(=O)NC(CC(=O)O)c1cccnc1 (stereo not drawn) [β-[[2-[[5-[(aminoiminomethyl)-amino]-1-oxopentyl]amino]-1-oxoethyl]amino]-3-pyridinepropanoic acid, reference compound]
IC50 ([2]; positive control included on each plate, read-out: αv β3 antagonist IC50 of positive control): 3 to 10 nM
